From PMC8605905 (Oxidative Medicine and Cellular Longevity, 2021)
Read-outs that look alike come from different tables or passages of the source.

Experiments:
[1] = DPPH radical-scavenging assay; details: compounds 10–160 μM, 100 μM DPPH, 30 min, n = 3
Method: Stable free radical 1,1-diphenyl-2-picrylhydrazyl (DPPH) (Sigma-Aldrich) was applied to test the potential radical-scavenging activity of the coumarin-chalcone derivatives. In brief, the compounds (10–160 μM) were added to an ethanol solution containing 100 μM DPPH. The mixture was vortexed for 15 sec, left to stand for 30 min at room temperature, and scavenging capacity was measured at a wavelength of 517 nm using a Multiskan GO microplate spectrophotometer (Thermo Fisher Scientific, Waltham, MA, USA).

Aβ42 peptide = molecular target: T1, Aβ42 peptide (Homo sapiens, UniProt P05067); assay: Thioflavin T assay of Aβ aggregation; assay type: biochemical; details: Aβ42 5 μM, compound 5–20 μM, 37°C 48 h; read-out: Aβ aggregation inhibition EC50 (Thioflavin T)
T1 construct: containing Aβ42 peptide (5 μM); purchased AnaSpec; host or cells: synthetic
Method: In brief, the tested compound (5–20 μM) was added to a buffer solution (150 mM NaCl, 20 mM Tris-HCl (pH 8.0)) containing Aβ42 peptide (5 μM) and incubated at 37°C for 48 h. Thioflavin T (10 μM) (Sigma-Aldrich) then was added, and the mixture was incubated for 5 min at room temperature. Subsequently, the fluorescence intensity was quantified at 420/485 nm of excitation/emission wavelengths using a FLx800 microplate reader (Bio-Tek, Winooski, VT, USA). EC50 was computed as described.

Aβ-GFP SH-SY5Y cells [2] = assay: High content analysis of Aβ-GFP fluorescence; assay type: cell-based, Human; details: for EC50: Homo sapiens, read-out: EC50 in Aβ aggregation inhibition (GFP fluorescence); for Concentration significantly augmenting green fluorescence intensity (Aβ-GFP): day 8
Method: (§1) Human neuroblastoma SH-SY5Y-derived Aβ-GFP [23] and ∆K280 tauRD-DsRed cells were kept in DMEM/nutrient mixture F12 (DMEM/F12) containing 10% FBS, 5 μg/ml blasticidin, and 100 μg/ml hygromycin (InvivoGen, San Diego, CA, USA). Doxycycline (Sigma-Aldrich) was applied to induce the expression of Aβ-GFP (5 μg/ml doxycycline) or ∆K280 tauRD-DsRed (2 μg/ml doxycycline).
On day 1, Aβ-GFP or ∆K280 tauRD-DsRed SH-SY5Y cells were seeded into 96-well plates (2.5 × 10^4/well) and treated with retinoic acid (10 μM; Sigma-Aldrich) to prompt neuronal differentiation. […] Image Acquisition and Analysis Software (MetaXpress) (Molecular Devices, Sunnyvale, CA, USA) was used to analyse the images. CellROX Orange (5 μM; Molecular Probes, Eugene, OR, USA) (for Aβ-GFP cells) or dichloro-dihydro-fluorescein diacetate (DCFH-DA, 10 μM; Invitrogen) (for ∆K280 tauRD-DsRed cells) was added to the cells and incubated at 37°C for 30 min.

Aβ-GFP SH-SY5Y cells [3] = assay: ROS assay (CellROX Orange) in Aβ-GFP cells; assay type: cell-based, Human; details: tested 1.2–5 μM
Method: (§2) On day 1, Aβ-GFP or ∆K280 tauRD-DsRed SH-SY5Y cells were seeded into 96-well plates (2.5 × 10^4/well) and treated with retinoic acid (10 μM; Sigma-Aldrich) to prompt neuronal differentiation. […] On day 8, cells were stained with Hoechst 33342 (0.1 μg/ml; Sigma-Aldrich) for 30 min, and cell images were automatically captured at excitation/emission wavelengths of 482/[…] (GFP fluorescence) or 543/593 nm (DsRed fluorescence) using a high content analysis (HCA) system (Micro Confocal High-Content Imaging System). Image Acquisition and Analysis Software (MetaXpress) (Molecular Devices, Sunnyvale, CA, USA) was used to analyse the images. CellROX Orange (5 μM; Molecular Probes, Eugene, OR, USA) (for Aβ-GFP cells) or dichloro-dihydro-fluorescein diacetate (DCFH-DA, 10 μM; Invitrogen) (for ∆K280 tauRD-DsRed cells) was added to the cells and incubated at 37°C for 30 min. The HCA system was used to measure intracellular ROS at 531/593 nm (CellROX Orange fluorescence) or 482/536 nm (DCFH-DA fluorescence) of excitation/emission wavelengths.

Aβ-GFP SH-SY5Y cells [4] = assay: Real-time PCR of Aβ-GFP RNA; assay type: cell-based, Human; details: 5 μM
Method: (§3) To measure the Aβ-GFP/tauRD-DsRed RNA expression on day 8, total RNA was extracted from collected cells and reverse-transcribed to cDNA (SuperScript III reverse transcriptase; Invitrogen, Waltham, MA, USA). Real-time quantitative PCR was performed using 100 ng of cDNA and the gene-specific TaqMan fluorogenic probe PN4331348 (EGFP) or customized Assays-by-Design probe for DsRed and 4326321E (HPRT1) (StepOnePlus Real-time PCR system, Applied Biosystems, Foster City, CA, USA). The RNA expression level was calculated using the formula 2^ΔCt, ΔCT = CT (control) − CT (target), in which CT indicates the cycle threshold.

[5] = test system: ∆K280 tauRD-DsRed SH-SY5Y cells; assay: High content analysis of ΔK280 tauRD-DsRed fluorescence; assay type: cell-based, Human; details: for EC50: Homo sapiens, read-out: Extrapolated EC50 in inhibiting ∆K280 tauRD aggregation (DsRed fluorescence)
Method: as §1, with “Human 293-derived Flp-In-293 cells (Invitrogen, Madison, WI, USA) were cultivated in Dulbecco's modified Eagle's medium (DMEM) containing 10% foetal bovine serum (FBS) (Thermo Fisher Scientific). Human” for “Human”
as §2

physchem = assay type: physicochemical; details: aqueous buffer
Method: The coumarin-chalcone derivatives (E)-4-hydroxy-3-(3-(p-tolyl)acryloyl)-2H-chromen-2-one (LM-016), (E)-3-(3-(4-(dimethylamino)phenyl)acryloyl)-4-hydroxy-2H-chromen-2-one (LM-021), and (E)-3-(3-(furan-2-yl)acryloyl)-4-hydroxy-2H-chromen-2-one (LM-022) were synthesized in our laboratory as previously described and examined by using NMR spectroscopy. The LM-016, LM-021, and LM-022 stayed soluble in cell culture medium at concentrations up to 100 μM.

ΔK280 tauRD protein = molecular target: T2, ΔK280 tauRD protein (Homo sapiens, UniProt P10636, DEL597-597); assay: Thioflavin T assay of ΔK280 tauRD aggregation; assay type: biochemical
T2 construct: E. coli-derived ΔK280 tauRD protein; made in house; host or cells: E. coli
Method: The potential of Congo red and coumarin-chalcone derivatives in inhibiting tau misfolding was assessed using the E. coli-derived ΔK280 tauRD protein [21]. In brief, ΔK280 tauRD protein (20 μM) was incubated with the tested compound (1−10 μM) in buffer (150 mM NaCl, 20 mM Tris-HCl (pH 8.0)) at 37°C for 48 h to form aggregates. Thioflavin T (5 μM) was then added, and the mixture was incubated at room temperature for 25 min. The fluorescence intensity of the samples was measured, and the EC50 was computed as described.

[6] = test system: ∆K280 tauRD-DsRed SH-SY5Y cells; assay: Real-time PCR of tauRD-DsRed RNA; assay type: cell-based, Human; details: 10 μM
Method: as §3

caspase 1 [7] = assay: Caspase 1 activity in ΔK280 tauRD-DsRed cells; assay type: cell-based, Human; details: 10 μM, ∆K280 tauRD-DsRed cells
Method: (§4) Aβ-GFP or ∆K280 tauRD-DsRed SH-SY5Y cells were seeded into 6-well plates (5 × 10^5/well) and treated with retinoic acid, coumarin-chalcone derivatives, and doxycycline as previously described. On day 8, cells were collected and lysates were prepared with six freeze/thaw cycles. The supernatant was collected by centrifugation, followed by measurement of the caspase 1 activity in 50 μg aliquots of cell extract using the ICE fluorometric assay kit (BioVision, Milpitas, CA, USA). Following incubation of the mixture at 37°C for 2 h, fluorescence was measured with excitation/emission wavelengths at 400/505 nm (FLx800 fluorescence microplate reader). In addition, the collected cells were lysed by sonication. Acetylcholinesterase (AChE) activity in the supernatant was determined in 10 μg aliquots of cell extracts using the AChE activity assay kit (Sigma-Aldrich) according to the manufacture's protocol. Finally, the absorbance at 412 nm was measured using a Multiskan GO spectrophotometer (Thermo Fisher Scientific).

[8] = test system: ∆K280 tauRD-DsRed SH-SY5Y cells; assay: High content analysis of neurite outgrowth in ΔK280 tauRD-DsRed cells; assay type: cell-based, Human; details: 10 μM
Method: On day 1, Aβ-GFP or ∆K280 tauRD-DsRed SH-SY5Y cells were plated into 24-well plates (6 × 10^4/well) followed by addition of retinoic acid. On day 2, cells were treated with coumarin-chalcone derivatives (5 or 10 μM) and with doxycycline (5 or 2 μg/ml) to induce the expression of Aβ-GFP or ∆K280 tauRD-DsRed. On day 8, 4% paraformaldehyde, 0.1% Triton X-100, and 3% BSA were used to fix, permeabilize, and block cells, respectively. Subsequently, the cells were stained with TUBB3 (neuronal class III β-tubulin) primary antibody (1 : 1000; Covance, Princeton, NJ, USA) at 4°C overnight. Goat anti-rabbit Alexa Fluor 555 secondary antibody (1 : 1000; Thermo Fisher Scientific) was then added, followed by a 3 h incubation at room temperature. Following staining nuclei with 4′,-6-diamidino-2-phenylindole (DAPI) (0.1 μg/ml; Sigma-Aldrich), the neurons were imaged by using the HCA system and analysed by using the Neurite Outgrowth Application Module (MetaXpress; Molecular Devices).
To monitor the cAMP-mediated signal transduction pathway, CRE-GFP 293 cells in 6-well plates (1 × 10^6/well) were pretreated with kinase inhibitor H-89 (LC Laboratories, Woburn, MA, USA), KN-62 (Cayman Chemical, Ann Arbor, MI, USA), U0126 (LC Laboratories), or wortmannin (LC Laboratories) (10 μM) for 4 h before forskolin or LM-021 (10 μM) addition for 5 h. GFP fluorescence/protein and total/phosphorylated PKA, CaMKII, ERK, PI3K, and CREB levels were examined. In addition, Aβ-GFP or ∆K280 tauRD-DsRed SH-SY5Y cells were treated with retinoic acid (10 μM) on day 1, followed by the addition of LM-021 (5 or 10 μM) and doxycycline (5 or 2 μg/ml) on day 2, as described. Kinase inhibitors (10 μM) were added on day 6. On day 8, the cells were collected for protein expression analysis of BDNF, BCL2 (BCL2 apoptosis regulator), and BAX (BCL2 associated X, apoptosis regulator), and total/phosphorylated PKA, CaMKII, ERK, PI3K, and CREB. Also, cells were stained with DAPI and assessed for neurite outgrowth as described above.

caspase 1 [9] = assay: Caspase 1 activity in Aβ-GFP cells; assay type: cell-based, Human; details: 5 μM, vs untreated cells
Method: as §4

[10] = test system: Acetylcholinesterase (AChE); assay: AChE activity in Aβ-GFP cells; assay type: cell-based; details: 5 μM, vs untreated cells
Method: as §4

[11] = ∆K280 tauRD-DsRed SH-SY5Y cells, tested 2.5–10 μM

T1 sequence (P05067 672-713 limits assumed): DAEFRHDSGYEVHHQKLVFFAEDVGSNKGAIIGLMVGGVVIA
T2 sequence (P10636 with tags, fused parts or gaps DEL597-597): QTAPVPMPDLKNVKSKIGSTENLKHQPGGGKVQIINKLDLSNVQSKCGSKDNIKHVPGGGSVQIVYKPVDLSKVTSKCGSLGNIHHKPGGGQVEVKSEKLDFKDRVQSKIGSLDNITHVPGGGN

Structure (SMILES)	EC50 [1] [µM]	EC50 (Aβ42 peptide) [µM]	EC50 (Aβ-GFP SH-SY5Y cells [2]; Aβ-GFP SH-SY5Y cells, tested 1.2–5 μM) [µM]	Concentration significantly augmenting green fluorescence intensity (Aβ-GFP) (Aβ-GFP SH-SY5Y cells [2]; tested 1.2–5 μM) [µM]	Concentration effectively decreasing ROS levels caused by Aβ overexpression (Aβ-GFP SH-SY5Y cells [3]) [µM]	Aβ-GFP RNA levels (Aβ-GFP SH-SY5Y cells [4])	EC50 [5, 11] [µM]	solubility (physchem) [µM]	EC50 (ΔK280 tauRD protein) [µM]	Concentration significantly elevating DsRed fluorescence intensity ([5]; tested 2.5–10 μM, day 8) [µM]	∆K280 tauRD-DsRed RNA level [6]	Caspase 1 activity (caspase 1 [7])	Neurite length and branches [8]	EC50 (Aβ-GFP SH-SY5Y cells [2]; SH-SY5Y) [µM]	Caspase 1 activity (caspase 1 [9])	AChE activity [10]	EC50 ([5]; SH-SY5Y) [µM]	solubility (physchem; cell culture medium, read-out: Concentration up to which the compound stayed soluble) [µM]
O=C(/C=C/c1ccco1)c1c(O)c2ccccc2oc1=O [LM-022, (E)-3-(3-(furan-2-yl)acryloyl)-4-hydroxy-2H-chromen-2-one]	143	18	8.2	2.5 to 5	2.5 to 5	did not significantly modify	73	≥ 100	–	–	–	–	–	–	–	–	–	–
Nc1c(/N=N/c2ccc(-c3ccc(/N=N/c4cc(S(=O)(=O)O)c5ccccc5c4N)cc3)cc2)cc(S(=O)(=O)O)c2ccccc12 [Congo red, reference compound]	–	–	–	–	–	–	57	–	10	10	did not significantly alter	lowered caspase 1 activity	successfully ameliorated	–	–	–	–	–
Cc1ccc(/C=C/C(=O)c2c(O)c3ccccc3oc2=O)cc1 [LM-016, (E)-4-hydroxy-3-(3-(p-tolyl)acryloyl)-2H-chromen-2-one]	126	15	–	2.5 to 5	2.5 to 5	did not significantly modify	–	–	–	–	–	–	–	7	reduced	reduced	70	≥ 100
